Where “and” joins values, the source holds several entries; their conditions need not be identical. Identical values can stand only once. Starred links: 1 amine or outer side, 2 acyl side, 3 side chain; linkers in the order of their positions; H or OH if unused. Non-standard residues stand in square brackets, D forms with d. Residues, ends and D or L forms follow the SMILES beside them. azaβ3(1Nal) = O=C(CN(Cc1cccc2ccccc12)N[*:1])[*:2]

One data set concerns zebrafish embryos. Nature of the data set: Zebrafish embryo quantitative toxicity (size, curvature, cardiac frequency). The protocol:
Adult fish were kept in 30l aquariums at 27°C ± 2°C under constant light/dark (14:10 h) cycles. The day before the embryos were used, males and females were placed in breeding tanks. The fish were left undisturbed overnight, and the eggs were collected 1 h after the light was turned on the next morning. When the injections of the cyclic peptides started, embryos were transferred into microtiter plates placed at 28°C for 24 h. Peptides were prepared at 1, 10, 20, 40, and 100 mM concentrations in water, and injections were performed into the caudal vein. Each peptide was injected at 1 nl for all concentrations except 100 mM, when 2 nl was injected. Control embryos were injected with 1 nl of water. When the peptides were injected, analysis determined embryo sizes, curvatures, and cardiac frequencies. Peptide concentrations were checked in 10 embryos, and these were divided among 96-well plates and analyzed under a microscope or using a magnifying glass. […] To do this, each peptide was prepared in 0.9% NaCl and injected into the tail veins of 3 male Swiss mice at 1.5, 2.0, 2.5, or 5.0 mg.kg^−1, corresponding, respectively, to calculated blood concentrations of approximately 18.5, 24.5, 31, and 62.0 μM. […] Clinical signs were recorded daily, including any reduced motor activity, piloerection, and redness in the ear lobe, cyanosis, protruding eyeballs, slow or labored breathing, loss of response in the rear legs, convulsions, or death. Body weight was recorded at least once before the beginning of the treatment period and again on the day of treatment, with the satellite group checked once during the observation period. For the groups of mice observed for 7 d, food consumption was measured once during the study. […] Hematology investigations were performed before necropsy for all animals except the satellite ones, whose blood biochemistry parameters were determined before euthanasia. […]

The next data set concerns P. aeruginosa LESB58. Nature of the data set: Cutaneous abscess mouse model (CFU). Type of data set: in vivo, mice. The protocol: (§1) For the cutaneous abscess model, the mice were randomly divided into 5 sets. The mice were anesthetized with isoflurane, their dorsal fur shaved, and their skin disinfected with 70% ethanol. An overnight culture of S. aureus MRSA or P. aeruginosa LESB58 was washed with 0.9% NaCl, and then a subcutaneous injection of 2 × 10^9 CFUs and an equal amount of sterile Cytodex microcarrier beads (20 mg.ml^−1, Sigma) for S. aureus MRSA, or 10^8 CFUs for P. aeruginosa were injected into the shaved area. […] Mice were monitored every day and then euthanized with CO2 on Day 6 or on Day 3. Abscesses were excised, measured, and homogenized in PBS using an Ultra-Turax. Serial dilutions of the samples were plated on BHI (MRSA) or 2YT medium (LESB58) plates and then incubated overnight at 37°C. Afterward, the CFUs were counted and expressed as log CFU/ml. Dermonecrosis areas were calculated according to the formula π × L × W. ATP levels were determined with an ATP assay kit (Promega) according to manufacturer instructions on sets of 5 colonies harboring the SCV phenotype, and sets of 5 colonies harboring a normal phenotype, after growth on BHI plates.

Another data set has as its system S. aureus Newman. Nature of the data set: SEM and TEM after treatment at MIC. In kind it is cell-based. Particulars: S. aureus treated at the MIC, 2 h 37°C. The protocol:
S. aureus Newman and E. coli K12 were cultured in MHB to an OD600 of 0.5 (10^8 CFU/ml). After adding peptides, samples were incubated at 160 rpm for 2 h at 37°C before centrifugation. Bacteria were exposed to pseudopeptide concentrations at their MIC. Untreated controls were prepared under identical conditions. Cell pellets were obtained after cell suspension centrifugation (1,000–3,000g for 5 min). […] S. aureus Newman samples were embedded in 2% agar and dehydrated in a graded series of increasing ethanol concentrations (50, 70, 90, and 100% v/v). For E. coli K12, the samples were placed on a 0.2 μm filter disc, dehydrated in a series of increasing ethanol concentrations, and vacuum dried for 48 h. For SEM observation, specimens were obtained after preparation with a Leica EM CPD300 critical point dryer. A Leica EM ACE200 was used for gold palladium metallization for 30 s. Sample observation was performed with a JEOL JSM-6301F microscope at 7 kV with a 15 mm work distance. TEM was also used to visualize the morphology and intracellular alteration of peptide-treated bacterial cells. For this, bacteria were grown and incubated with AMPs as described above for SEM sample preparation, and controls were prepared in standard medium. Cell pellets were also prepared as described above. […]

A further data set has as its system S. aureus MRSA. Nature of the data set: Cutaneous abscess mouse model (lesion size, CFU). In kind it is in vivo, mice. Here is the method: as §1
[1] abbreviates: mice, MRSA subcutaneous, single IV 1.5 mg.kg^−1 at 24 h, 6 days post infection.

`CC(C)[C@@H]1NC(=O)[C@H](CCCNC(=N)N)NC(=O)[C@H](CCCNC(=N)N)NC(=O)[C@H](Cc2c[nH]c3ccccc23)NC(=O)[C@H](Cc2ccccc2)NC(=O)[C@H](Cc2ccccc2)NC(=O)[C@H](CCCCN)NC1=O` [Pep18] (cyclo(FFWRRVK)): the “Cardiac frequency, Mean” value came to 29 heart beat/10 sec in the data set on zebrafish embryos (1 nl of 1 mM injected), 29 heart beat/10 sec in the data set with zebrafish embryos (1 nl of 10 mM injected) and 22 heart beat/10 sec in the data set with zebrafish embryos (1 nl of 20 mM injected).

On to `CC(C)[C@@H]1NC(=O)[C@H](CCCNC(=N)N)NC(=O)[C@H](CCCNC(=N)N)NC(=O)CN(Cc2cccc3ccccc23)NC(=O)[C@H](Cc2ccccc2)NC(=O)CN(Cc2cccc3ccccc23)NC(=O)[C@H](CCCCN)NC1=O` [Pep19] (cyclo([azaβ3(1Nal)]F[azaβ3(1Nal)]RRVK)), for which the “CFU counts per abscess” value in the data set on P. aeruginosa LESB58 (cutaneous abscesses induced by P. aeruginosa in mice, repeated doses post-infection, 30mg/kg, second data set, individual values) was 5.3 log Cfu/ml and 4.34 log Cfu/ml and 3.16 log Cfu/ml and 3.11 log Cfu/ml and 2.85 log Cfu/ml and 6.21 log Cfu/ml and 4.95 log Cfu/ml. In the data set on P. aeruginosa LESB58 (mice, P. aeruginosa LESB58, 30 mg.kg^−1 subcutaneous twice a day for 2 d, day 3), the “Reduction of the bacterial load of abscess” value is ~50 fold. The “Cell wall erosion by electron microscopy” value in the data set on S. aureus Newman is given as “eroded”. Besides, the “CFU counts per abscess, SCV” value in the data set on S. aureus MRSA (cutaneous abscesses from MRSA in mice, IV 24 h post-infection, 1.5 mg.kg-1, SCV, individual values) was 5.62 log Cfu/ml and 5.85 log Cfu/ml and 5.73 log Cfu/ml and 5.93 log Cfu/ml and 5.11 log Cfu/ml and 4.73 log Cfu/ml and 4.55 log Cfu/ml and 5.5 log Cfu/ml and 5.67 log Cfu/ml. Besides, in the data set with S. aureus MRSA (cutaneous abscesses from MRSA in mice, IV 24 h post-infection, 1.5 mg.kg-1, individual values), the Area of dermonecrosis was 165.8 mm2 and 78.8 mm2 and 98.9 mm2 and 174.7 mm2 and 106.7 mm2 and 160.2 mm2 and 96.4 mm2 and 106.4 mm2 and 176.2 mm2. In the data set with S. aureus MRSA (setting [1]), the “Bacterial content of skin abscess” value is “strong reduction” and the Skin abscess volume entry is given as “strong reduction”.

These data come from PMC6615598, “Novel antibiotics effective against gram-positive and -negative multi-resistant bacteria with limited resistance” (PLoS Biology, 2019).
